Test system: HBsAg
Assay: HBsAg assay (secreted HBsAg by CLIA in HepG2.2.15 cells)
Format: cell-based, hepatitis B virus (HBV)
Conditions: Hepatitis B virus, HepG2.2.15, 96 h
Experimental: HepG2.2.15 cells (Sells et al, Proc Natl Acad Sci USA. 1987 February; 84(4):1005-9), a constitutively HBV-expressing cell line, were cultured in DMEM medium supplemented with 10% FBS and 400 μg/mL G418, and maintained in 5% CO2 at 37° C.
HepG2.2.15 cells were seeded into 96-well plates at 3×10^4 cells/well. The next day, the cells were treated with a five-fold serial dilution series of the compound in DMSO. The final DMSO concentration in all wells was 0.5% and 0.5% DMSO was used as no drug control. After four days of incubation with compounds, the supernatants were harvested and measured for HBsAg concentration
The HBsAg chemiluminescence immunoassay (CLIA) kit was used to measure the levels of secreted HBsAg. Specifically, 50 μL of culture supernatant was transferred to the CLIA assay plate and 50 μL of enzyme conjugate reagent was added into each well. The plates were sealed and incubated for 1 hour at room temperature. The supernatant-enzyme-mixture was discarded and wells were washed for 6 times. The residual liquid was removed by plating on tissue paper. 25 μL of substrate A and B were added into each well. Luminance was measured using a spectrometer (Tecan Infinite® F200) after 10 minutes incubation. IC50 value was extrapolated based the dose-response curves generated from the data.

Structure (SMILES) | IC50 [nM]
COc1cc2c(cc1-c1ccc(C(F)(F)F)nc1)CC(C(C)(C)C)n1cc(C(=O)O)c(=O)cc1-2 (stereo not drawn) [Example 41, 6-(tert-butyl)-10-methoxy-2-oxo-9-(6-trifluoromethylpyridin-3-yl)-6,7-dihydro-2H-pyrido[2,1-a]isoquinoline-3-carboxylic acid] | 2
COCCOc1ccc(-c2cc3c(cc2OC)-c2cc(=O)c(C(=O)O)cn2C(C(C)(C)C)C3)cn1 (stereo not drawn) [Example 42, 6-(tert-butyl)-10-methoxy-9-(6-(2-methoxyethoxy)pyridin-3-yl)-2-oxo-6,7-dihydro-2H-pyrido[2,1-a]isoquinoline-3-carboxylic acid] | 2
COc1cc2c(cc1-c1ccc(N(C)C)nc1)CC(C(C)(C)C)n1cc(C(=O)O)c(=O)cc1-2 (stereo not drawn) [Example 43, 6-(tert-butyl)-9-(6-(dimethylamino)pyridin-3-yl)-10-methoxy-2-oxo-6,7-dihydro-2H-pyrido[2,1-a]isoquinoline-3-carboxylic acid] | 1
COc1cc2c(cc1-c1ccc(N3CCCC3)nc1)CC(C(C)(C)C)n1cc(C(=O)O)c(=O)cc1-2 (stereo not drawn) [Example 44, 6-(tert-butyl)-10-methoxy-2-oxo-9-(6-(pyrrolidin-1-yl)pyridin-3-yl)-6,7-dihydro-2H-pyrido[2,1-a]isoquinoline-3-carboxylic acid] | 10
COc1cc2c(cc1-c1ccc(N3CCNCC3)nc1)CC(C(C)(C)C)n1cc(C(=O)O)c(=O)cc1-2 (stereo not drawn) [Example 45, 6-(tert-butyl)-10-methoxy-2-oxo-9-(6-(piperazin-1-yl)pyridin-3-yl)-6,7-dihydro-2H-pyrido[2,1-a]isoquinoline-3-carboxylic acid] | 14
COc1cc2c(cc1-c1ccc(N3CCN(C(C)=O)CC3)nc1)CC(C(C)(C)C)n1cc(C(=O)O)c(=O)cc1-2 (stereo not drawn) [Example 46, 9-(6-(4-acetylpiperazin-1-yl)pyridin-3-yl)-6-(tert-butyl)-10-methoxy-2-oxo-6,7-dihydro-2H-pyrido[2,1-a]isoquinoline-3-carboxylic acid] | 3
COc1cc2c(cc1-c1ccc(N3CCN(C)CC3)nc1)CC(C(C)(C)C)n1cc(C(=O)O)c(=O)cc1-2 (stereo not drawn) [Example 47, 6-(tert-butyl)-10-methoxy-9-(6-(4-methylpiperazin-1-yl)pyridin-3-yl)-2-oxo-6,7-dihydro-2H-pyrido[2,1-a]isoquinoline-3-carboxylic acid] | 2
COc1cc2c(cc1-c1cnc(F)cc1C)CC(C(C)(C)C)n1cc(C(=O)O)c(=O)cc1-2 (stereo not drawn) [Example 48, 6-(tert-butyl)-9-(6-fluoro-4-methylpyridin-3-yl)-10-methoxy-2-oxo-6,7-dihydro-2H-pyrido[2,1-a]isoquinoline-3-carboxylic acid] | 68
COc1cc2c(cc1-c1ccc(F)nc1)CC(C(C)(C)C)n1cc(C(=O)O)c(=O)cc1-2 (stereo not drawn) [Example 49, 6-(tert-butyl)-9-(6-fluoropyridin-3-yl)-10-methoxy-2-oxo-6,7-dihydro-2H-pyrido[2,1-a]isoquinoline-3-carboxylic acid] | 14
COc1cc2c(cc1-c1ccc(NCC3CC3)nc1)CC(C(C)(C)C)n1cc(C(=O)O)c(=O)cc1-2 (stereo not drawn) [Example 52, 6-(tert-butyl)-9-(6-(cyclopropylmethylamino)pyridin-3-yl)-10-methoxy-2-oxo-6,7-dihydro-2H-pyrido[2,1-a]isoquinoline-3-carboxylic acid] | 12
COc1cc2c(cc1-c1cnc(N3CCC3)cc1C)CC(C(C)(C)C)n1cc(C(=O)O)c(=O)cc1-2 (stereo not drawn) [Example 53, 9-(6-(azetidin-1-yl)-4-methylpyridin-3-yl)-6-(tert-butyl)-10-methoxy-2-oxo-6,7-dihydro-2H-pyrido[2,1-a]isoquinoline-3-carboxylic acid] | 1400
COc1cc2c(cc1-c1ccc(N)nc1)CC(C(C)(C)C)n1cc(C(=O)O)c(=O)cc1-2 (stereo not drawn) [Example 54, 9-(6-aminopyridin-3-yl)-6-(tert-butyl)-10-methoxy-2-oxo-6,7-dihydro-2H-pyrido[2,1-a]isoquinoline-3-carboxylic acid] | 1
CCOC(=O)c1cn2c(cc1=O)-c1cc(OC)c(-c3ccc(C)nc3)cc1CC2C(C)(C)C (stereo not drawn) [Example 55, Ethyl 6-(tert-butyl)-10-methoxy-9-(6-methylpyridin-3-yl)-2-oxo-6,7-dihydro-2H-pyrido[2,1-a]isoquinoline-3-carboxylate] | 0.8
COc1cc2c(cc1-c1ccc(NC3CCC3)nc1)CC(C(C)(C)C)n1cc(C(=O)O)c(=O)cc1-2 (stereo not drawn) [Example 56, 6-(tert-butyl)-9-(6-(cyclobutylamino)pyridin-3-yl)-10-methoxy-2-oxo-6,7-dihydro-2H-pyrido[2,1-a]isoquinoline-3-carboxylic acid] | 1
COc1cc2c(cc1-c1ccc(NC(C)=O)nc1)CC(C(C)(C)C)n1cc(C(=O)O)c(=O)cc1-2 (stereo not drawn) [Example 57, 9-(6-acetamidopyridin-3-yl)-6-(tert-butyl)-10-methoxy-2-oxo-6,7-dihydro-2H-pyrido[2,1-a]isoquinoline-3-carboxylic acid] | 1
COc1cc2c(cc1-c1cnc(C)nc1)CC(C(C)(C)C)n1cc(C(=O)O)c(=O)cc1-2 (stereo not drawn) [Example 58, 6-(tert-butyl)-10-methoxy-9-(2-methylpyrimidin-5-yl)-2-oxo-6,7-dihydro-2H-pyrido[2,1-a]isoquinoline-3-carboxylic acid] | 4
COc1cc2c(cc1-c1cnc(N3CCCC3)nc1)CC(C(C)(C)C)n1cc(C(=O)O)c(=O)cc1-2 (stereo not drawn) [Example 59, 6-(tert-butyl)-10-methoxy-2-oxo-9-(2-(pyrrolidin-1-yl)pyrimidin-5-yl)-6,7-dihydro-2H-pyrido[2,1-a]isoquinoline-3-carboxylic acid] | 10
COc1cc2c(cc1-c1cnc(N(C)C)nc1)CC(C(C)(C)C)n1cc(C(=O)O)c(=O)cc1-2 (stereo not drawn) [Example 61, 6-(tert-butyl)-9-(2-(dimethylamino)pyrimidin-5-yl)-10-methoxy-2-oxo-6,7-dihydro-2H-pyrido[2,1-a]isoquinoline-3-carboxylic acid] | 4
COc1cc2c(cc1-c1cnc(N3CCOCC3)nc1)CC(C(C)(C)C)n1cc(C(=O)O)c(=O)cc1-2 (stereo not drawn) [Example 62, 6-(tert-butyl)-10-methoxy-9-(2-morpholinylpyrimidin-5-yl)-2-oxo-6,7-dihydro-2H-pyrido[2,1-a]isoquinoline-3-carboxylic acid] | 5
COc1cc2c(cc1-c1cnc(NC3CC3)nc1)CC(C(C)(C)C)n1cc(C(=O)O)c(=O)cc1-2 (stereo not drawn) [Example 64, 6-(tert-butyl)-9-(2-(cyclopropylamino)pyrimidin-5-yl)-10-methoxy-2-oxo-6,7-dihydro-2H-pyrido[2,1-a]isoquinoline-3-carboxylic acid] | 7
COc1cc2c(cc1-c1cnc(N)nc1)CC(C(C)(C)C)n1cc(C(=O)O)c(=O)cc1-2 (stereo not drawn) [Example 65, 9-(2-aminopyrimidin-5-yl)-6-(tert-butyl)-10-methoxy-2-oxo-6,7-dihydro-2H-pyrido[2,1-a]isoquinoline-3-carboxylic acid] | 80
COc1ncc(-c2cc3c(cc2OC)-c2cc(=O)c(C(=O)O)cn2C(C(C)(C)C)C3)cn1 (stereo not drawn) [Example 66, 6-(tert-butyl)-10-methoxy-9-(2-methoxypyrimidin-5-yl)-2-oxo-6,7-dihydro-2H-pyrido[2,1-a]isoquinoline-3-carboxylic acid] | 0.8
COc1cc2c(cc1-c1cnc(NCC3CC3)nc1)CC(C(C)(C)C)n1cc(C(=O)O)c(=O)cc1-2 (stereo not drawn) [Example 67, 6-(tert-butyl)-9-(2-(cylcopropylmethylamino)pyrimidin-5-yl)-10-methoxy-2-oxo-6,7-dihydro-2H-pyrido[2,1-a]isoquinoline-3-carboxylic acid] | 0.3
COc1cc2c(cc1-c1cnc(Cl)nc1)CC(C(C)(C)C)n1cc(C(=O)O)c(=O)cc1-2 (stereo not drawn) [Example 68, 6-(tert-butyl)-9-(2-chloropyrimidin-5-yl)-10-methoxy-2-oxo-6,7-dihydro-2H-pyrido[2,1-a]isoquinoline-3-carboxylic acid] | 0.6
COc1cc2c(cc1-c1cnc(NC3CCC3)nc1)CC(C(C)(C)C)n1cc(C(=O)O)c(=O)cc1-2 (stereo not drawn) [Example 76, 6-(tert-butyl)-9-(2-(cyclobutylamino)pyrimidin-5-yl)-10-methoxy-2-oxo-6,7-dihydro-2H-pyrido[2,1-a]isoquinoline-3-carboxylic acid] | 0.4
COc1cc2c(cc1-c1cnc(N3CCC(C(=O)O)C3)nc1)CC(C(C)(C)C)n1cc(C(=O)O)c(=O)cc1-2 (stereo not drawn) [Example 77, 6-(tert-butyl)-9-(2-(3-carboxypyrrolidin-1-yl)pyrimidin-5-yl)-10-methoxy-2-oxo-6,7-dihydro-2H-pyrido[2,1-a]isoquinoline-3-carboxylic acid] | 150
COc1cc2c(cc1-c1cnc(NCC(=O)O)nc1)CC(C(C)(C)C)n1cc(C(=O)O)c(=O)cc1-2 (stereo not drawn) [Example 78, 6-(tert-butyl)-9-(2-((carboxymethyl)amino)pyrimidin-5-yl)-10-methoxy-2-oxo-6,7-dihydro-2H-pyrido[2,1-a]isoquinoline-3-carboxylic acid] | 45

Source: patent US10717730B1, “Dihydroisoquinoline compound” (SUZHOU ARK BIOPHARMACEUTICAL CO., LTD., priority 2017, dated 2020)
